Laboratory results: the supplement of paper PMC10307832

Legend:
Test in all cases: relative viability (nuclei count vs DMSO), 5 days (fraction); higher = more cells survive
GSK-J4 + Palbociclib = compound: CCOC(=O)CCNc1cc(N2CCc3ccccc3CC2)nc(-c2ccccn2)n1 [GSK-J4] + CC(=O)c1c(C)c2cnc(Nc3ccc(N4CCNCC4)cn3)nc2n(C2CCCC2)c1=O [Palbociclib] (partner 0.5 µM)
Procedure, shortened: (§1)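 Nuclei were stained with Hoechst during a one-step fixation (final 0.05% Triton X-100, 1% formaldehyde, 1 ug/ml Hoechst) carried out 5 days after dosing, then counted on 4× images. The cells, lung cancer lines in 1536-well plates, had been dosed by pin tool the day after seeding with one drug alone or a fixed anchor-drug dose plus five library-drug doses (not always all listed) in √10 steps. Relative viability is the nuclei count in treated wells divided by that in vehicle wells, and each value is the median of duplicate plates.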

GSK-J4 + Lapatinib = compound: CCOC(=O)CCNc1cc(N2CCc3ccccc3CC2)nc(-c2ccccn2)n1 [GSK-J4] + CS(=O)(=O)CCNCc1ccc(-c2ccc3ncnc(Nc4ccc(OCc5cccc(F)c5)c(Cl)c4)c3c2)o1 [Lapatinib] (partner 2 µM)
Procedure, shortened: as §1

AZ3146 + Luminespib = compound: CN1CCC(CC1)OC2=CC(=C(C=C2)NC3=NC=C4C(=N3)N(C(=O)N4C)C5CCCC5)OC [AZ3146] + CCNC(=O)c1noc(-c2cc(C(C)C)c(O)cc2O)c1-c1ccc(CN2CCOCC2)cc1 [Luminespib] (partner 0.01 µM)
Procedure, shortened: as §1

AZ3146 + Tozasertib = compound: CN1CCC(CC1)OC2=CC(=C(C=C2)NC3=NC=C4C(=N3)N(C(=O)N4C)C5CCCC5)OC [AZ3146] + Cc1cc(Nc2cc(N3CCN(C)CC3)nc(Sc3ccc(NC(=O)C4CC4)cc3)n2)n[nH]1 [Tozasertib] (partner 0.1 µM)
Procedure, shortened: as §1

Q: What does the source list for UMC-11?
A: relative viability (GSK-J4 + Palbociclib; first compound 0.5 µM): 0.367; relative viability (GSK-J4 + Palbociclib; first compound 1.581 µM): 0.288; relative viability (GSK-J4 + Palbociclib; first compound 15.81 µM): 0.35; relative viability (GSK-J4 + Palbociclib; first compound 50 µM): 0.241; relative viability (GSK-J4 + Lapatinib; first compound 0.5 µM): 1.07; relative viability (GSK-J4 + Lapatinib; first compound 1.581 µM): 0.465; relative viability (GSK-J4 + Lapatinib; first compound 5 µM): 0.611; relative viability (GSK-J4 + Lapatinib; first compound 15.81 µM): 1.06; relative viability (GSK-J4 + Lapatinib; first compound 50 µM): 0.808; relative viability (AZ3146 + Luminespib; first compound 0.08 µM): 0.959; relative viability (AZ3146 + Luminespib; first compound 0.253 µM): 1.2; relative viability (AZ3146 + Luminespib; first compound 0.8 µM): 1.09; relative viability (AZ3146 + Luminespib; first compound 2.53 µM): 0.86; relative viability (AZ3146 + Luminespib; first compound 8 µM): 0.256; relative viability (AZ3146 + Tozasertib; first compound 0.08 µM): 0.177; relative viability (AZ3146 + Tozasertib; first compound 0.253 µM): 0.199; relative viability (AZ3146 + Tozasertib; first compound 0.8 µM): 0.204; relative viability (AZ3146 + Tozasertib; first compound 2.53 µM): 0.177; relative viability (AZ3146 + Tozasertib; first compound 8 µM): 0.183
